Assay results reported in paper PMC9104108, “Purification and Identification of Novel Myeloperoxidase Inhibitory Antioxidant Peptides from Tuna (Thunnas albacares) Protein Hydrolysates” (Molecules, 2022).
Where no end group is shown, it is not given here.

Tests used:
[1] = target: T1, MPO (Homo sapiens, UniProt P05164); experiment: MPO inhibitor screening assay kit, chlorination assay; format: biochemical; conditions: APF substrate, synthesized peptides
T1 construct: purchased Abnova, Taiwan
T1 sequence (P05164 49-745): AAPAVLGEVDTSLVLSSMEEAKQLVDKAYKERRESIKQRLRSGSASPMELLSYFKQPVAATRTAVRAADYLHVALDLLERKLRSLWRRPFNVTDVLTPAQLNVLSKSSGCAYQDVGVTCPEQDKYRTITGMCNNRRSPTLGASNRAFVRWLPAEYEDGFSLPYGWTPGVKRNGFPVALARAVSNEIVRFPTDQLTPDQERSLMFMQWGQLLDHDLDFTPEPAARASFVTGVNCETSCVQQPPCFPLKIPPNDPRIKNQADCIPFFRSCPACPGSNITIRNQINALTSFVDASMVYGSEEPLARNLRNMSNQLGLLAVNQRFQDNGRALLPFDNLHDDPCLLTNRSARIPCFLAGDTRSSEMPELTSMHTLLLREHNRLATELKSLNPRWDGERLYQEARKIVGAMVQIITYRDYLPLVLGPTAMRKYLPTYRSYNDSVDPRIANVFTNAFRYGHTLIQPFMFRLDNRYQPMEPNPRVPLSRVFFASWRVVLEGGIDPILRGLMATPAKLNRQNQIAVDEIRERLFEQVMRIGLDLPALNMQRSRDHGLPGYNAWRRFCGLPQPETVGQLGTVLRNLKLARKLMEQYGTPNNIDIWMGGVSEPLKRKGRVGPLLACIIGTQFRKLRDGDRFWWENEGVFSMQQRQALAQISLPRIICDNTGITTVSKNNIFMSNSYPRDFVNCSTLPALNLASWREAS
Excerpt: (§1) The inhibitory effect of peptides on MPO was estimated using an MPO inhibitor screening assay kit (Abnova, Taiwan), which was used to assess in both the peroxidation and chlorination activities of MPO. Peroxidation assay utilizes the peroxidase component of MPO. During the reaction, hydrogen peroxide reacts with 10-acetyl-3,7-dihydroxyphenoxazine (ADHP) to yield resorufin, a highly fluorescent compound. The chlorination assay utilizes non-fluorescent 2-[6-(4-aminophenoxy)-3-oxo-3H-xanthen-9-yl]-benzoic acid (APF), which is selectively cleaved by hypochlorite to produce fluorescein. The 4-aminobenzhydrazide was used as positive control. The MPO inhibitory activity was determined according to the kit instructions.

[2] = target: T1, MPO; experiment: MPO inhibitor screening assay kit, peroxidation assay; format: biochemical; conditions: ADHP substrate, synthesized peptides
Excerpt: as §1

Substance	IC50 [1]	IC50 [2]
ACGSDGK [ACGSDGK]	32.3 µM	17.9 µM
DASHGHSG	> 500 µM	> 500 µM
DVSDLDAD	296 µM	> 500 µM
GDAFDKA [GDAFDKA]	> 500 µM	> 500 µM
GELALKD [GELALKD]	122 µM	> 500 µM
KFCSGHA [KFCSGHA]	108 µM	40.3 µM
